# System: human KRAS G12C mutated cell line MIA PaCa-2
# Test: Inhibition of proliferation of MIA PaCa-2 cells (CellTiter-Glo, 7 day)
# Type: cell-based
# Details: 168 h, Table 3, 7 day, mean, read-out: MIA PaCa-2 IC50 (μM) 7 day Mean
# Source text: The present example evaluates the ability of compounds provided herein to inhibit proliferation of KRAS mutant cells.
# The proliferation inhibitory effect was investigated in the human KRAS G12C mutated cell line MIA PaCa-2 (Yunis et al., 1977, Int. J. Cancer 19(1):128-135; ATCC catalog no. CRL-1420). Cells were maintained in RPMI-1640 medium (ThermoFisher catalog no. 61870036) supplemented with 10% of Heat Inactivated FBS (ThermoFisher catalog no. A31605) and 1% Pen-Strep (ThermoFisher catalog no. 10378016) and cultured at 37° C. in a humidified incubator with 5% CO2. Cell lines were grown by adhering to culture flasks, and the cells were maintained in a range 70%-80% confluency.
# ATP is present in all metabolically active cells and is considered as a marker for cell viability and proliferation. Metabolic cell activity was determined using the CellTiter-Glo kit (Promega catalog no. G7572), an ATP monitoring system based on the production of luminescence by the reaction of ATP with added UltraGlo® recombinant luciferase (Kawano et al., 2016, PLOS One, 8; 11(7):e0158888), according to the supplier's experimental recommendations. The assay was based on a 96 well plate format.
# Test compounds were dissolved at 10 mM in DMSO (Sigma catalog no. D8418; purity >99.9%) and stored at −20° C. Eight concentrations of test compound were assessed in duplicate in an individual test occasion in parallel in the selected cell lines. MRTX-849 and AMG-510 were used as reference compounds and tested in duplicate at eight concentrations. 100% of proliferation is represented by the untreated cells (0.2% DMSO).
# (§1) On the day of the experiment (TO), cells were detached with TrypLE (ThermoFisher catalog no. 12604054) and quantified using the Vi-CELL XR Cell Viability (Beckman Coulter) analyzer and diluted with fresh medium to obtain the cell density of about 1000 cells per 200 μL medium. 200 μL of cell suspension were added into wells in the 96 well plate.
# After 2 hours from seeding cells, compounds were added using a D300e compound dispenser (Tecan Trading AG) at desired concentrations with shaking between each compound dispensed. Cell plates containing 200 μL/well were incubated at 37° C. in a humidified incubator with 5% CO2.
# On day T3, 150 μL of growth media per well were removed from plates containing the samples, 150 uL fresh growth media were added to each well, and fresh compounds were added using a D300e compound dispenser (Tecan Trading AG) at desired concentrations with shaking between each compound dispensed. Cell plates containing 200 uL/well were incubated at 37° C. in a humidified incubator with 5% CO2. On day T7 plates containing the samples were equilibrated at room temperature for approximately 15 min, and then 40 μL/well of the Promega CellTiterGlo® reagent was added. Contents were mixed for 30 minutes on an orbital shaker to induce cell lysis. Luminescence was read using a Synergy Neo 2 (Agilent Technologies.
# Data was expressed as % of inhibition compared to the 0.2% DMSO negative control, and is calculated as follows: % inhibition=100−[(RLU sample)×100/(RLU controls*)], where * indicates the average for 0.2% DMSO. […]
# as §1, with “12604054),” for “12604054) and”, “resuspended in” for “diluted with”, “at a” for “to obtain the”, “to each well of a” for “into wells in the”
# Two hours after seeding cells, compounds were added at desired concentrations using a D300e compound dispenser (Tecan Trading AG) with shaking after each compound addition. Assay plates were incubated at 37° C. in a humidified incubator with 5% CO2.
# On day 3 (T3) 150 μL of medium from assay plates were removed. 150 μL fresh medium and compounds were added at desired concentrations using a D300e compound dispenser (Tecan Trading AG) with shaking after each compound addition. […]
row,Compound,IC50
1,"C=CC(=O)N1C2CCC1CN(c1nc(OC[C@@]34CCCN3C[C@H](F)C4)nc3c(F)c(-c4cc(O)cc5ccc(F)c(F)c45)ncc13)C2 [Compound 306, 1-[3-[7-(7,8-difluoro-3-hydroxy-1-naphthyl)-8-fluoro-2-[[(2R,8S)-2-fluoro-1,2,3,5,6,7-hexahydropyrrolizin-8-yl]methoxy]pyrido[4,3-d]pyrimidin-4-yl]-3,8-diazabicyclo[3.2.1]octan-8-yl]prop-2-en-1-one]",0.0015 µM
2,"C=C(F)C(=O)N1C2CCC1CN(c1nc(OC[C@@]34CCCN3C[C@H](F)C4)nc3c(F)c(-c4cc(O)cc(Cl)c4C4CC4)ccc13)C2 [Compound 307, 1-[3-[7-(3-chloro-2-cyclopropyl-5-hydroxy-phenyl)-8-fluoro-2-[[(2R,8S)-2-fluoro-1,2,3,5,6,7-hexahydropyrrolizin-8-yl]methoxy]quinazolin-4-yl]-3,8-diazabicyclo[3.2.1]octan-8-yl]-2-fluoro-prop-2-en-1-one]",0.126 µM
3,"C=CC(=O)N1C2CCC1CN(c1nc(OC[C@@]34CCCN3C[C@H](F)C4)nc3cc(-c4cc(O)cc(Cl)c4C4CC4)c(F)cc13)C2 [Compound 308, 1-[3-[7-(3-chloro-2-cyclopropyl-5-hydroxy-phenyl)-6-fluoro-2-[[(2R,8S)-2-fluoro-1,2,3,5,6,7-hexahydropyrrolizin-8-yl]methoxy]quinazolin-4-y1]-3,8-diazabicyclo[3.2.1]octan-8-yl]prop-2-en-1-one]",0.0282 µM
4,C=CC(=O)N1C2CCC1CN(c1nc(OC[C@@]34CCCN3C[C@H](F)C4)nc3cc(-c4cc(O)cc(Cl)c4C4CC4)cnc13)C2 [Compound 309],> 1 µM
5,"C=CC(=O)N1CCN(c2nc(OC[C@@]34CCCN3C[C@H](F)C4)nc3cc(-c4cc(O)cc(Cl)c4C4CC4)cnc23)C2(CC2)C1 [Compound 319, 1-[4-[7-(3-chloro-2-cyclopropyl-5-hydroxy-phenyl)-2-[[(2R,8S)-2-fluoro-1,2,3,5,6,7-hexahydropyrrolizin-8-yl]methoxy]pyrido[3,2-d]pyrimidin-4-yl]-4,7-diazaspiro[2.5]octan-7-yl]prop-2-en-1-one]",> 1 µM
6,"C=CC(=O)N1CCN(c2nc(OC[C@@]34CCCN3C[C@H](F)C4)nc3cc(-c4c(O)cccc4C4CC4)cnc23)[C@H](C)C1 [Compound 320, 1-[(3R)-4-[7-(2-cyclopropyl-6-hydroxy-phenyl)-2-[[(2R,8S)-2-fluoro-1,2,3,5,6,7-hexahydropyrrolizin-8-yl]methoxy]pyrido[3,2-d]pyrimidin-4-yl]-3-methyl-piperazin-1-yl]prop-2-en-1-one]",> 1 µM
7,"C=CC(=O)N1C2CCC1CN(c1nc(OC[C@@]34CCCN3C[C@H](F)C4)nc3cc(-c4cccc5cccc(Cl)c45)c(F)cc13)C2 [Compound 321, 1-[3-[7-(8-chloro-1-naphthyl)-6-fluoro-2-[[(2R,8S)-2-fluoro-1,2,3,5,6,7-hexahydropyrrolizin-8-yl]methoxy]quinazolin-4-y1]-3,8-diazabicyclo[3.2.1]octan-8-yl]prop-2-en-1-one]",> 1 µM
8,"C=CC(=O)N1C[C@H]2C[C@@H]1CN2c1nc(OC[C@@]23CCCN2C[C@H](F)C3)nc2cc(-c3cccc4cccc(Cl)c34)c(F)cc12 [Compound 322, 1-[(1R,4R)-5-[7-(8-chloro-1-naphthyl)-6-fluoro-2-[[(2R,8S)-2-fluoro-1,2,3,5,6,7-hexahydropyrrolizin-8-yl]methoxy]quinazolin-4-y1]-2,5-diazabicyclo[2.2.1]heptan-2-yl]prop-2-en-1-one]",> 1 µM
9,C=CC(=O)N1CCN(c2nc(OC[C@@]34CCCN3C[C@H](F)C4)nc3cc(-c4cccc5cccc(Cl)c45)c(F)cc23)CC12CC2 [Compound 323],> 1 µM

# Further lines, results first:
row,IC50,Compound
1,> 1 µM,"C=CC(=O)N1CCC2(c3nc(OC[C@@]45CCCN4C[C@H](F)C5)nc4c(F)c(-c5cc(O)cc6ccccc56)ncc34)CC2C1 (stereo partly drawn) [Compound 310, 1-[6-[8-fluoro-2-[[(2R,8S)-2-fluoro-1,2,3,5,6,7-hexahydropyrrolizin-8-yl]methoxy]-7-(3-hydroxy-1-naphthyl)pyrido[4,3-d]pyrimidin-4-yl]-3-azabicyclo[4.1.0]heptan-3-yl]prop-2-en-1-one]"
2,> 1 µM,"C=CC(=O)N1C[C@H]2C[C@@H]1CN2c1nc(OC[C@@]23CCCN2C[C@H](F)C3)nc2c(F)c(-c3cc(O)cc(Cl)c3C3CC3)ccc12 [Compound 311, 1-[(1R,4R)-5-[7-(3-chloro-2-cyclopropyl-5-hydroxy-phenyl)-8-fluoro-2-[[(2R,8S)-2-fluoro-1,2,3,5,6,7-hexahydropyrrolizin-8-yl]methoxy]quinazolin-4-yl]-2,5-diazabicyclo[2.2.1]heptan-2-yl]prop-2-en-1-one]"
3,> 1 µM,"C=CC(=O)N1C[C@H]2C[C@@H]1CN2c1nc(OC[C@@]23CCCN2C[C@H](F)C3)nc2cc(-c3cc(O)cc(Cl)c3C3CC3)cnc12 [Compound 312, 1-[(1R,4R)-5-[7-(3-chloro-2-cyclopropyl-5-hydroxy-phenyl)-2-[[(2R,8S)-2-fluoro-1,2,3,5,6,7-hexahydropyrrolizin-8-yl]methoxy]pyrido[3,2-d]pyrimidin-4-y1]-2,5-diazabicyclo[2.2.1]heptan-2-yl]prop-2-en-1-one]"
4,0.0373 µM,"C=CC(=O)N1CCN(c2nc(OC[C@@]34CCCN3C[C@H](F)C4)nc3c(F)c(-c4cc(O)cc(Cl)c4C4CC4)ccc23)CC12CC2 [Compound 313, 1-[7-[7-(3-chloro-2-cyclopropyl-5-hydroxy-phenyl)-8-fluoro-2-[[(2R,8S)-2-fluoro-1,2,3,5,6,7-hexahydropyrrolizin-8-yl]methoxy]quinazolin-4-yl]-4,7-diazaspiro[2.5]octan-4-yl]prop-2-en-1-one]"
5,> 1 µM,"C=CC(=O)N1CCN(c2nc(OC[C@@]34CCCN3C[C@H](F)C4)nc3cc(-c4cc(O)cc(Cl)c4C4CC4)cnc23)CC12CC2 [Compound 314, 1-[7-[7-(3-chloro-2-cyclopropyl-5-hydroxy-phenyl)-2-[[(2R,8S)-2-fluoro-1,2,3,5,6,7-hexahydropyrrolizin-8-yl]methoxy]pyrido[3,2-d]pyrimidin-4-y1]-4,7-diazaspiro[2.5]octan-4-yl]prop-2-en-1-one]"
6,> 1 µM,C=CC(=O)N1CCN(c2nc(OC[C@@]34CCCN3C[C@H](F)C4)nc3cc(-c4cccc5cccc(Cl)c45)c(F)cc23)C2(CC2)C1 [Compound 315]
7,> 1 µM,"C=CC(=O)N1CCN(c2nc(OC[C@@]34CCCN3C[C@H](F)C4)nc3cc(-c4cc(O)cc(Cl)c4C4CC4)c(F)cc23)C2(CC2)C1 [Compound 316, 1-[4-[7-(3-chloro-2-cyclopropyl-5-hydroxy-phenyl)-6-fluoro-2-[[(2R,8S)-2-fluoro-1,2,3,5,6,7-hexahydropyrrolizin-8-yl]methoxy]quinazolin-4-yl]-4,7-diazaspiro[2.5]octan-7-yl]prop-2-en-1-one]"
8,> 1 µM,"C=CC(=O)N1CCN(c2nc(OC[C@@]34CCCN3C[C@H](F)C4)nc3cc(-c4cc(O)cc(Cl)c4C4CC4)c(F)cc23)CC12CC2 [Compound 317, 1-[7-[7-(3-chloro-2-cyclopropyl-5-hydroxy-phenyl)-6-fluoro-2-[[(2R,8S)-2-fluoro-1,2,3,5,6,7-hexahydropyrrolizin-8-yl]methoxy]quinazolin-4-yl]-4,7-diazaspiro[2.5]octan-4-yl]prop-2-en-1-one]"
9,> 1 µM,"C=CC(=O)N1C[C@H]2C[C@@H]1CN2c1nc(OC[C@@]23CCCN2C[C@H](F)C3)nc2cc(-c3cc(O)cc(Cl)c3C3CC3)c(F)cc12 [Compound 318, 1-[(1R,4R)-5-[7-(3-chloro-2-cyclopropyl-5-hydroxy-phenyl)-6-fluoro-2-[[(2R,8S)-2-fluoro-1,2,3,5,6,7-hexahydropyrrolizin-8-yl]methoxy]quinazolin-4-yl]-2,5-diazabicyclo[2.2.1]heptan-2-yl]prop-2-en-1-one]"
